Drawing on PubChem BioAssay (NCI), this text covers TGI for six compounds.

Some test systems named below: 786-0 renal; HCT-15 colon; OVCAR-3 ovarian; T-47D breast; SK-OV-3 ovarian; MOLT-4 leukemia; KM12 colon; NCI-H522 lung; NCI/ADR-RES ovarian; MCF7 breast; NCI-H460 lung; UO-31 renal; MDA-MB-435; HT29 colon; UACC-257 melanoma; UACC-62 melanoma; PC-3 prostate; DU-145 prostate; A498 renal; SNB-19 CNS.
What all share (test): NCI-60 cell line screen, 48 h

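Tested at 5 concentrations; 48 h exposure; 96-well plates; endpoints linearly interpolated, else capped at highest concentration. TGI: total growth inhibition.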 Bounds are passed on as bounds.

Regarding `CN1N=C(c2ccccc2)C(C(c2ccccc2[N+](=O)[O-])C2C(=O)N(C)N=C2c2ccccc2)C1=O` (configuration not stated), the TGI is over 100 µM with 786-0 renal; over 100 µM in the assay on HCT-15 colon; over 100 µM in the assay with OVCAR-3 ovarian; over 100 µM in the assay on T-47D breast; over 100 µM with SK-OV-3 ovarian; 72.7 µM in the assay on MOLT-4 leukemia. For the same compound, the TGI with KM12 colon, in the assay with NCI-H522 lung, in the assay on NCI/ADR-RES ovarian, in the assay on MCF7 breast, in the assay on NCI-H460 lung and in the assay with UO-31 renal was over 100 µM throughout. The TGI with MDA-MB-435, with HT29 colon, in the assay on UACC-257 melanoma, in the assay on UACC-62 melanoma, in the assay on PC-3 prostate and in the assay with DU-145 prostate was over 100 µM in each case. Moreover, the TGI in the assay with A498 renal and with SNB-19 CNS was over 100 µM each time.

As for `CCOC(=O)c1nc2ccc(C(F)(F)F)cc2nc1Nc1ccc(F)cc1`, the TGI in the assay with 786-0 renal, with HCT-15 colon, with OVCAR-3 ovarian, with T-47D breast, in the assay on SK-OV-3 ovarian and in the assay with MOLT-4 leukemia was over 100 µM in each case. Further, the TGI in the assay on KM12 colon, in the assay with NCI-H522 lung, with NCI/ADR-RES ovarian, with MCF7 breast, with NCI-H460 lung and in the assay with UO-31 renal was over 100 µM throughout. For the same compound, the TGI in the assay with MDA-MB-435, with HT29 colon, in the assay with UACC-257 melanoma, with UACC-62 melanoma, in the assay on PC-3 prostate and in the assay with DU-145 prostate was over 100 µM throughout. The TGI in the assay with A498 renal and with SNB-19 CNS was over 100 µM in each case.

As to `CCN(CC)C(=S)SC1C(=O)NC(=O)NC1=O`, the TGI in the assay with 786-0 renal, with HCT-15 colon, in the assay on OVCAR-3 ovarian, with T-47D breast, in the assay on SK-OV-3 ovarian and in the assay on MOLT-4 leukemia was over 100 µM throughout. The TGI was over 100 µM in the assay with KM12 colon; over 100 µM in the assay on NCI-H522 lung; over 100 µM with NCI/ADR-RES ovarian; over 100 µM in the assay on MCF7 breast; 12.7 µM with NCI-H460 lung; over 100 µM in the assay on UO-31 renal. Besides, the TGI in the assay on MDA-MB-435, in the assay with HT29 colon, in the assay with UACC-257 melanoma, in the assay on UACC-62 melanoma, in the assay on PC-3 prostate and with DU-145 prostate was over 100 µM each time. Moreover, the TGI in the assay with A498 renal worked out at 6.06 µM.

`COc1cc(C(c2cccc3ccccc23)N2C(=O)CCC2C(=O)O)cc(OC)c1OC` (configuration not stated): the TGI in the assay on 786-0 renal, with HCT-15 colon, in the assay with OVCAR-3 ovarian, in the assay on T-47D breast, in the assay with SK-OV-3 ovarian and with MOLT-4 leukemia was over 100 µM each time. Also, the TGI with KM12 colon, in the assay with NCI-H522 lung, with NCI/ADR-RES ovarian, with MCF7 breast, in the assay on NCI-H460 lung and with UO-31 renal was over 100 µM in each case. Moreover, the TGI in the assay with MDA-MB-435, in the assay on HT29 colon, in the assay on UACC-257 melanoma, in the assay on UACC-62 melanoma, with PC-3 prostate and in the assay with DU-145 prostate was over 100 µM each time. Besides, the TGI in the assay on A498 renal and in the assay with SNB-19 CNS was over 100 µM each time.

On to `CC(=O)C1(C)CC(C#N)(C#N)C(C#N)=C1N` (configuration not stated), for which the TGI in the assay on 786-0 renal, with HCT-15 colon, with OVCAR-3 ovarian, in the assay on T-47D breast, in the assay on SK-OV-3 ovarian and in the assay on MOLT-4 leukemia was over 100 µM in each case. Further, the TGI in the assay on KM12 colon, with NCI-H522 lung, with NCI/ADR-RES ovarian, in the assay on MCF7 breast, in the assay on UO-31 renal and with MDA-MB-435 was over 100 µM throughout. Further, the TGI in the assay on HT29 colon, with UACC-257 melanoma, in the assay on UACC-62 melanoma, in the assay with PC-3 prostate, with DU-145 prostate and in the assay with A498 renal was over 100 µM throughout. The compound further displayed a TGI in the assay on SNB-19 CNS of over 100 µM.

As for `COc1cc(C2c3[nH]c4ccccc4c3[C@@H](Nc3ccc(C#N)cc3)[C@H]3COC(=O)N23)cc(OC)c1O` (some centres not stated), the TGI came out at 0.337 µM in the assay on 786-0 renal; 5.56 µM in the assay on HCT-15 colon; 2.21 µM in the assay on OVCAR-3 ovarian; 3.5 µM in the assay with T-47D breast; 1.04 µM in the assay with SK-OV-3 ovarian; 0.0634 µM with MOLT-4 leukemia. Besides, the TGI in the assay with NCI-H522 lung is 0.547 µM; in the assay on NCI/ADR-RES ovarian, over 10 µM; in the assay on MCF7 breast, 2.7 µM; with NCI-H460 lung, 0.342 µM; in the assay with UO-31 renal, 2.57 µM; in the assay with MDA-MB-435, 2.19 µM. Also, the TGI with HT29 colon is over 10 µM; in the assay with UACC-257 melanoma it was 3.29 µM; with UACC-62 melanoma, 0.651 µM; with PC-3 prostate, 6.6 µM; in the assay on DU-145 prostate it was 0.839 µM; with A498 renal, 0.777 µM. The compound also showed a TGI in the assay with SNB-19 CNS of over 10 µM.
